Data taken from ChEMBL document CHEMBL1201862, “PubChem BioAssay data set” (2004).
Calls of active or inactive are those of the source.

How the values were obtained:
Assay type in all cases: functional
[1] = target: Platelet-derived growth factor receptor alpha (Homo sapiens, UniProt P16234); test: Navigating the Kinome. Panel member name: PDGFRA
[2] = target: Tyrosine-protein kinase BTK (Homo sapiens, UniProt Q06187)
[3] = target: Vascular endothelial growth factor receptor 1 (Homo sapiens, UniProt P17948);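 further: measured within a kinome-wide profiling panel, FLT1 as the panel member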
[4] = target: Cyclin-dependent kinase 9 (Homo sapiens, UniProt P50750);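 further: value from the CDK9 entry of a kinome-spanning kinase panel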
[5] = target: T1, cAMP-dependent protein kinase catalytic subunit PRKX (Homo sapiens, UniProt P51817)
T1 sequence (P51817 whole entry): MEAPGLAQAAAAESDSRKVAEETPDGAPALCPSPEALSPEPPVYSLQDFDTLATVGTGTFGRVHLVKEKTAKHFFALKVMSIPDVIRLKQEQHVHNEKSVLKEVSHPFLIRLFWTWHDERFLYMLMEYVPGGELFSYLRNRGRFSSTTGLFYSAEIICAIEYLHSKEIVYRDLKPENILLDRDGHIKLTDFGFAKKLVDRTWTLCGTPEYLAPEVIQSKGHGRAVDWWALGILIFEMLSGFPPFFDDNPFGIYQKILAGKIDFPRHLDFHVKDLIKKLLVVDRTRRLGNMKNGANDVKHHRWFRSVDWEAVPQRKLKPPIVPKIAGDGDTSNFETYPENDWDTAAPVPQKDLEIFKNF

[6] = target: Dual specificity tyrosine-phosphorylation-regulated kinase 1B (Homo sapiens, UniProt Q9Y463); test: Navigating the Kinome. Panel member name: DYRK1B
[7] = target: T2, Mitogen-activated protein kinase kinase kinase kinase 2 (Homo sapiens, UniProt Q12851);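 further: measured as one member of a kinome-wide kinase panel, with MAP4K2 as the panel entry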
T2 sequence (Q12851 whole entry): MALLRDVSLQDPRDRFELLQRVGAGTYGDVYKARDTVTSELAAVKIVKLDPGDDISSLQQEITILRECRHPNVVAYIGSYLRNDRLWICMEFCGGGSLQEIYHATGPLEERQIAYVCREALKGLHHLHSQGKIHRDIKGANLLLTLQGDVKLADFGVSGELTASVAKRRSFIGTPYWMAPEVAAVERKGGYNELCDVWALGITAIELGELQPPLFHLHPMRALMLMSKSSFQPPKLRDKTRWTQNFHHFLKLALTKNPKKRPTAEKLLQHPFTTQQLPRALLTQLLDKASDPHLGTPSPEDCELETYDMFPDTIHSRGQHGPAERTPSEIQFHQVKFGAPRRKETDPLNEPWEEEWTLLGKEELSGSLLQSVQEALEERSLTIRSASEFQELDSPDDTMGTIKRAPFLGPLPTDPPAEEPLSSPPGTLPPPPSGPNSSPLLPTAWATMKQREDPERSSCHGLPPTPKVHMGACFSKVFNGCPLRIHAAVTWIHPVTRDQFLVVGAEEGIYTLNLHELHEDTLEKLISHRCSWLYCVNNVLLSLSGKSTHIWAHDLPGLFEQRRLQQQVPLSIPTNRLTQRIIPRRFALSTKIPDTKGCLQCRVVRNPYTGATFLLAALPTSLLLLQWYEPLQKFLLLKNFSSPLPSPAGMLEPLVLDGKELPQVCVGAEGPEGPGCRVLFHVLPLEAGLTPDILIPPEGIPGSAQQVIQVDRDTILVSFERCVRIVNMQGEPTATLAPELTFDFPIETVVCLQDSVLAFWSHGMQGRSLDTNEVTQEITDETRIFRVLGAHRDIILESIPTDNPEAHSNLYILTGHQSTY

[8] = target: Tyrosine-protein kinase ABL1 (Homo sapiens, UniProt P00519)
[9] = target: Activated CDC42 kinase 1 (Homo sapiens, UniProt Q07912); test: Navigating the Kinome. Panel member name: ACK1
[10] = target: Cyclin-dependent kinase 5 (Homo sapiens, UniProt Q00535);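 further: CDK5 measured as one member of a kinase profiling panel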
[11] = target: Mitogen-activated protein kinase 9 (Homo sapiens, UniProt P45984);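 further: value from a kinome panel profiling assay, MAPK9 panel entry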
[12] = target: Dual specificity mitogen-activated protein kinase kinase 1 (Homo sapiens, UniProt Q02750); test: Navigating the Kinome. Panel member name: MAP2K1
[13] = target: Fibroblast growth factor receptor 1 (Homo sapiens, UniProt P11362)
[14] = target: Calcium/calmodulin-dependent protein kinase type II subunit alpha (Homo sapiens, UniProt Q9UQM7); test: Navigating the Kinome. Panel member name: CAMK2A
[15] = target: Dual specificity mitogen-activated protein kinase kinase 2 (Homo sapiens, UniProt P36507); test: Navigating the Kinome. Panel member name: MAP2K2
[16] = target: BDNF/NT-3 growth factors receptor (Homo sapiens, UniProt Q16620);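 further: NTRK2 measured as one member of a broad kinome-wide kinase profiling panel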
[17] = target: Mitogen-activated protein kinase kinase kinase kinase 4 (Homo sapiens, UniProt O95819)

Sequence of Platelet-derived growth factor receptor alpha (P16234 whole entry): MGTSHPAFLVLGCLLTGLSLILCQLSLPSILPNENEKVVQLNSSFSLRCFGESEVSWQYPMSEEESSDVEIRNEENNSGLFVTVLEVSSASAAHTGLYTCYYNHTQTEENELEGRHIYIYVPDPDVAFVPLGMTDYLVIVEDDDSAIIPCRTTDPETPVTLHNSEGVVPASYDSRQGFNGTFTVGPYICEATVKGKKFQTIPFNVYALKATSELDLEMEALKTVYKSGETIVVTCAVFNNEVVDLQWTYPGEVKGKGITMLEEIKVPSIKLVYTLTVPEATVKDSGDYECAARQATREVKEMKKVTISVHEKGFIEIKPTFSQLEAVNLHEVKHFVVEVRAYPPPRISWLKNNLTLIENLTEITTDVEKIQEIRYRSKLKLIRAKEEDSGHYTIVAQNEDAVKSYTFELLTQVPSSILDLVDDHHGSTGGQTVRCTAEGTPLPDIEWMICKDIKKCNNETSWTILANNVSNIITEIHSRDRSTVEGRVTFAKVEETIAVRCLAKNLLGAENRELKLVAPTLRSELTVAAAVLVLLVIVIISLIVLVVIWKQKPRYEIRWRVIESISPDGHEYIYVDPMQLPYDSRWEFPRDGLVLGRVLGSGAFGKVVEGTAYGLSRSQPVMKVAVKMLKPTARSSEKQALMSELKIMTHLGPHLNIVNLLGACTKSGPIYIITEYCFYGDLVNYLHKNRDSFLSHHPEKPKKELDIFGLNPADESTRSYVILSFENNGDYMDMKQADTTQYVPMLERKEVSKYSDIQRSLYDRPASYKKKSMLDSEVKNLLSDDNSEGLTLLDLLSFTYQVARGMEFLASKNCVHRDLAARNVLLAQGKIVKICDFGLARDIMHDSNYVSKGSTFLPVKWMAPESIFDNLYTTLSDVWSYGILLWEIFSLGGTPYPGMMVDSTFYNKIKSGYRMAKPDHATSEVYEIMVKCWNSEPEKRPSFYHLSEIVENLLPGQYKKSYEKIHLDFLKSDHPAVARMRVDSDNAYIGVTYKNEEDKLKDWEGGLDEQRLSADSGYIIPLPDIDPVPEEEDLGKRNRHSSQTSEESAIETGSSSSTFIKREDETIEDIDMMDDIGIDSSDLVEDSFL
Sequence of Dual specificity tyrosine-phosphorylation-regulated kinase 1B (Q9Y463 whole entry): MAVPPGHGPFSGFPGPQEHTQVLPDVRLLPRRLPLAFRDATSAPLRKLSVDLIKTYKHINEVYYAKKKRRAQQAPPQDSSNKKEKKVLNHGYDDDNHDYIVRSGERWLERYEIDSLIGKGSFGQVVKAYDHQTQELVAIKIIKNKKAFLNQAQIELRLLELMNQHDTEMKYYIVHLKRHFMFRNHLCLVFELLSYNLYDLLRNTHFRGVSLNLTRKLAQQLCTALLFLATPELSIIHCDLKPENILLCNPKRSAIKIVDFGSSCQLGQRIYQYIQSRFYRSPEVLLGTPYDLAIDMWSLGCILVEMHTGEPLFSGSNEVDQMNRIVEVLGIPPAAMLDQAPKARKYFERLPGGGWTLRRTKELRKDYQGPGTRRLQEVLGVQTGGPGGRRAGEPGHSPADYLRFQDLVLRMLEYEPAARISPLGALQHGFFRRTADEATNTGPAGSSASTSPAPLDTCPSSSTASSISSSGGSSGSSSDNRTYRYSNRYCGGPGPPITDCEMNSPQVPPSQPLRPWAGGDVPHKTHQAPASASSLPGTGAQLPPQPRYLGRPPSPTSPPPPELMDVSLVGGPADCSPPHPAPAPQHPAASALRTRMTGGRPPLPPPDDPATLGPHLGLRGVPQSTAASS
Sequence of BDNF/NT-3 growth factors receptor (Q16620 whole entry): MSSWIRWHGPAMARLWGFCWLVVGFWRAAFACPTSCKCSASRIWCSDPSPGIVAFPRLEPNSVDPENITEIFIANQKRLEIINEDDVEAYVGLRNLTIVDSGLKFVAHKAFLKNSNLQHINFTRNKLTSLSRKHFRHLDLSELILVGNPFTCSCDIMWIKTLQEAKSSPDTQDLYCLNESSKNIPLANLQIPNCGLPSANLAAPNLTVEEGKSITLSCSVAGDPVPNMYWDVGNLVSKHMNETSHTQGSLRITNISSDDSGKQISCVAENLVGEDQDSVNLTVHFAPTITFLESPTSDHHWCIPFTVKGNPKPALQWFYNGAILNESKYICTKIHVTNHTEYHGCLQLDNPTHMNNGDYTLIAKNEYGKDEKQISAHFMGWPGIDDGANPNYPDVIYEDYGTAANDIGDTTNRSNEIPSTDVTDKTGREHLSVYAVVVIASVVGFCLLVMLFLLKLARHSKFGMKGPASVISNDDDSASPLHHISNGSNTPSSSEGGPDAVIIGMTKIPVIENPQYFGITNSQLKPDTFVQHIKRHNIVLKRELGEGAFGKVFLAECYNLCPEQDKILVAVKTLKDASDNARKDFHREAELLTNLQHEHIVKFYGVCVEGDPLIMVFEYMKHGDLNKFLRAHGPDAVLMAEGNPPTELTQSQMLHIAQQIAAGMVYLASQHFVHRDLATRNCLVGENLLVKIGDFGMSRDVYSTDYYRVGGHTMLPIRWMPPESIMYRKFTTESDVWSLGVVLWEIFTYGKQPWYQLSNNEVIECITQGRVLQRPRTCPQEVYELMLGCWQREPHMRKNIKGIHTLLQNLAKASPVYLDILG
Sequence of Dual specificity mitogen-activated protein kinase kinase 1 (Q02750 whole entry): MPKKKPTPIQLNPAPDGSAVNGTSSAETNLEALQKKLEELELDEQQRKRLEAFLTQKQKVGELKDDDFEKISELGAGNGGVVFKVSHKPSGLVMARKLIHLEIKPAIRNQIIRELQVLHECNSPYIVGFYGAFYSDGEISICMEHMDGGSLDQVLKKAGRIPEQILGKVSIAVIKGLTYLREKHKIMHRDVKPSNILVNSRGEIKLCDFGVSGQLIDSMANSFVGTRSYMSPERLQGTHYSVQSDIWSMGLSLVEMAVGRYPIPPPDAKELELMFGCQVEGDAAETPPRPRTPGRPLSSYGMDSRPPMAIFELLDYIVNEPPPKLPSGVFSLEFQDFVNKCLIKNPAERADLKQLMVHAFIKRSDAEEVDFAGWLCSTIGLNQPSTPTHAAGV
Sequence of Mitogen-activated protein kinase 9 (P45984 whole entry): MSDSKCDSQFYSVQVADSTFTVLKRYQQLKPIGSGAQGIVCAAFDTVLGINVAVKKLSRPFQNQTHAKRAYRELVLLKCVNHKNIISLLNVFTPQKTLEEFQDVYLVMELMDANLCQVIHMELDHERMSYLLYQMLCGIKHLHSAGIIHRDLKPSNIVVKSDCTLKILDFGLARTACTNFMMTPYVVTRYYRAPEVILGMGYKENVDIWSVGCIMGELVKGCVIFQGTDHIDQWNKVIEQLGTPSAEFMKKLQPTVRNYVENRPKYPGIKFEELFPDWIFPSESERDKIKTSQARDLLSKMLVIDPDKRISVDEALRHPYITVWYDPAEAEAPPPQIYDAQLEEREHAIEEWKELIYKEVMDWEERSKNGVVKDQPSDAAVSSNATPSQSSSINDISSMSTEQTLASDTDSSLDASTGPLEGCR
Sequence of Cyclin-dependent kinase 5 (Q00535 whole entry): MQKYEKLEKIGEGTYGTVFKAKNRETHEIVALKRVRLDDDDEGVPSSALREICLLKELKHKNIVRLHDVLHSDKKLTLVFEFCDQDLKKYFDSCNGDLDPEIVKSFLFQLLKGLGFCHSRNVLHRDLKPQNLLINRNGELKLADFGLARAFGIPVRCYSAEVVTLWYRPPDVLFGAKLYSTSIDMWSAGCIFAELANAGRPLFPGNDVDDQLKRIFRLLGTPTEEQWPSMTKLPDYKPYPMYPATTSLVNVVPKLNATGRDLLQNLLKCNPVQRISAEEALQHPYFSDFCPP
Sequence of Calcium/calmodulin-dependent protein kinase type II subunit alpha (Q9UQM7 whole entry): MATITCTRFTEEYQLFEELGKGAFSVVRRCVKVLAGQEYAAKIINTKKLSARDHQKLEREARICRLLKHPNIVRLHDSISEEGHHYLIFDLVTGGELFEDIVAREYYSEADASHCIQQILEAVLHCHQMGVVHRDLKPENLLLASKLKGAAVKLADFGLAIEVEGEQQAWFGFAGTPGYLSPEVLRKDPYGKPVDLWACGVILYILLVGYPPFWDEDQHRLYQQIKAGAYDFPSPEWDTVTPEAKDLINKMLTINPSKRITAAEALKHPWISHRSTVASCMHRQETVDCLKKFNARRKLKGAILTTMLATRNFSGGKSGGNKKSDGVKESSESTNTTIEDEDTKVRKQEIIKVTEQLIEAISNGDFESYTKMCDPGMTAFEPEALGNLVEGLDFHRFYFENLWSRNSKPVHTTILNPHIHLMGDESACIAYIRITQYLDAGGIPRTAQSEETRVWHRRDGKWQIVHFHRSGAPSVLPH
Sequence of Fibroblast growth factor receptor 1 (P11362 whole entry): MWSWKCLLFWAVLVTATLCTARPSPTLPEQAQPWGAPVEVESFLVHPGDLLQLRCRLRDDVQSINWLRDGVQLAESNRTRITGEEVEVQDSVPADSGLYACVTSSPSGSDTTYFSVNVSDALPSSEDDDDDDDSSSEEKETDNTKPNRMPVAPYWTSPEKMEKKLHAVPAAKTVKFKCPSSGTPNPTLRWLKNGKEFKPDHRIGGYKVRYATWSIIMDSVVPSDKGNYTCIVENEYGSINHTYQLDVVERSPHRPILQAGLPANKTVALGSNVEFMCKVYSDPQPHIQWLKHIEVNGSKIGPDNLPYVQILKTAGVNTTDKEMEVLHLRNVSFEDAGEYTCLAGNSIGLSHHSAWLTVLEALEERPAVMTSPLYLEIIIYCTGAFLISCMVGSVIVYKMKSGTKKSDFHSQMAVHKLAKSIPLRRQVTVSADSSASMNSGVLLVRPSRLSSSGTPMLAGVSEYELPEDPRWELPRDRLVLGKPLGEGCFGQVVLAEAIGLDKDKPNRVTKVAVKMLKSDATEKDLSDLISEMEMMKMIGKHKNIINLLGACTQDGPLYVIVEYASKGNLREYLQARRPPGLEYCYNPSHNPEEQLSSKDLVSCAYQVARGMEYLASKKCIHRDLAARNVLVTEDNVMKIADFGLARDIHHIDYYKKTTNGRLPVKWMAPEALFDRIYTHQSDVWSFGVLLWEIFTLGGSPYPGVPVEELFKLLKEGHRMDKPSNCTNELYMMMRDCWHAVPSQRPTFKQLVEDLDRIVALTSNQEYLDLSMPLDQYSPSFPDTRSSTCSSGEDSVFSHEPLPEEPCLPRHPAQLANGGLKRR

Ki [1] | Ki [2] | Ki [3] | Ki [4] | Ki [5] | Ki [6] | Ki [7] | Ki [8] | Ki [9] | Ki [10] | Ki [11] | Ki [12] | Ki [13] | Ki [14] | Ki [15] | Ki [16] | Ki [17] | SMILES | further results
1 µM (active) | > 1.26 µM (inactive) | 0.158 µM (active) | 0.00126 µM (active) | 0.0631 µM (active) | 0.00251 µM (active) | 0.0398 µM (active) | 0.631 µM (active) | 3.16 µM (active) | 0.01 µM (active) | 0.251 µM (active) | 0.0316 µM (active) | 2 µM (active) | 0.158 µM (active) | 0.0501 µM (active) | 0.398 µM (active) | > 0.00316 µM (inactive) | OC1CCC(Nc2nc(Cl)cc(-c3c[nH]c4ncccc34)n2)CC1 (centres undefined) | pKi [1]: 6; pKi [3]: 6.8; pKi [4]: 8.9; pKi [5]: 7.2; pKi [6]: 8.6; pKi [7]: 7.4; pKi [8]: 6.2; pKi [9]: 5.5; pKi [10]: 8; pKi [11]: 6.6; pKi [12]: 7.5; pKi [13]: 5.7; pKi [14]: 6.8; pKi [15]: 7.3; pKi [16]: 6.4
> 2.51 µM (inactive) | > 6.31 µM (inactive) | > 3.98 µM (inactive) | > 1.58 µM (inactive) | 2 µM (active) | > 2.51 µM (inactive) | > 2.51 µM (inactive) | > 3.98 µM (inactive) | > 3.98 µM (inactive) | > 3.16 µM (inactive) | > 3.98 µM (inactive) | > 3.16 µM (inactive) | > 3.98 µM (inactive) | > 7.94 µM (inactive) | > 3.98 µM (inactive) | > 3.98 µM (inactive) | > 5.01 µM (inactive) | COc1cccc(CNC(=O)c2cnc(-c3ccncc3)nc2)c1 | –
